In US20250387358A1 (SpringWorks Therapeutics, Inc., priority 2024, published 2025):

System: NF1-associated plexiform neurofibromas (PNs)
Assay: Phase 2b trial, efficacy by BICR volumetric MRI per REiNS criteria
Assay type: in vivo, human
Settings: observed time
Experimental: Participants were screened (assessed for eligibility as described below). […] The median age was 34.5 years (range 18 to 69 years); 85% were white and 64% were female. […] The most commonly reported morbidities were pain (90%) and disfigurement or major deformity (52%).
The median age was 10 years (range 2 to 17 years); 66% were white and 54% were female. […] The most commonly reported morbidities were pain (70%) and disfigurement or major deformity (50%).
Study treatment was administered orally at a twice daily (BID) dose specified in the table below. Dosing was on a 28-day Cycle (4-week course) with a 3 week on/1 week off schedule. The treatment period will last for up to 24 Cycles followed by a 30-day Safety Follow-Up period.
A partial response was defined as PN decrease ≥20% compared to baseline using centrally read MRI volumetric analysis.
The major efficacy outcome measure was confirmed objective response rate (ORR), defined as the percentage of patients with complete response (disappearance of the target PN) or confirmed partial response (≥20% reduction in PN volume confirmed at a subsequent tumor assessment within 2-6 months during the 24-cycle treatment phase). Responses were assessed by blinded independent central review (BICR) using volumetric magnetic resonance imaging (MRI) analysis per Response Evaluation in Neurofibromatosis and Schwannomatosis (REINS) criteria. A secondary efficacy objective was to determine the duration of response for patients who achieved a confirmed objective response.

[1] = Pediatric, first DoR line (r12)
[2] = Pediatric, second DoR line (r13)

O=C(NOC[C@H](O)CO)c1ccc(F)c(F)c1Nc1ccc(I)cc1F (single isomer, unassigned) [mirdametinib]
DoR ≥12 months, % of responders (Adult, first DoR line (r12)): (88%)
DoR ≥12 months, number of responders (Adult, first DoR line (r12)): 21
DoR ≥12 months, % of responders (Adult, second DoR line (r13)): (48%)
DoR ≥12 months, number of responders (Adult, second DoR line (r13)): 14
DoR ≥12 months, % of responders [1]: (90%)
DoR ≥12 months, number of responders [1]: 26
DoR ≥12 months, % of responders [2]: (66%)
DoR ≥12 months, number of responders [2]: 19
